The values below come from ChEMBL document CHEMBL1275380, “Studies toward the structural optimization of novel thiazolylhydrazone-based potent antitrypanosomal agents” (Bioorg Med Chem, 2010).

For orientation: inhibition means the relative decrease from the control value, in per cent. What is called IC50 is the concentration at which inhibition is half-maximal.

Activity calls are given as the source filed them. No cut-off for these calls is given here.

The target of data set [1] is Cruzipain (Trypanosoma cruzi) (UniProt P25779). The data set can be described thus: Inhibition of Trypanosoma cruzi cruzaine in presence of 0.01% Triton X-100.
Sequence of Cruzipain (Trypanosoma cruzi) (P25779 123-467 limits assumed): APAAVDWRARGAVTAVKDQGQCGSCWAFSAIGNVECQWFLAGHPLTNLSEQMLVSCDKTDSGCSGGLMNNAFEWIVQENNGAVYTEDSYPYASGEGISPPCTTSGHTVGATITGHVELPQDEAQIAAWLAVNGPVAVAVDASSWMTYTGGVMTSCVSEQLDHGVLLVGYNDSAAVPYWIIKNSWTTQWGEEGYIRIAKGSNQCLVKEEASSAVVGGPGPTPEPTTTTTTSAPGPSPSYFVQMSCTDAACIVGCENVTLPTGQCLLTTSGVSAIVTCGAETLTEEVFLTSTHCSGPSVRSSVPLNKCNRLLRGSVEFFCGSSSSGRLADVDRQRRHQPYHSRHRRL
The target is the same in data set [2]. The data set is described as follows: Inhibition of Trypanosoma cruzi cruzaine at 100 uM pre-incubated for 10 mins.
For data set [3] the target is unchanged. The data set is described as follows: Inhibition of Trypanosoma cruzi cruzaine in absence of 0.01% Triton X-100.
In data set [4] the test system is Trypanosoma cruzi. The data set is described as follows: Antitrypanosomal activity against epimastigotes of Trypanosoma cruzi Y assessed as viability after 11 days by trypan blue exclusion assay. Type of data set: functional, organism-based. The following applies: 264 h.
In data set [5] the test system is Trypanosoma cruzi. The data set is described as follows: Antitrypanosomal activity against trypomastigotes of Trypanosoma cruzi Y assessed as viability after 24 hrs by trypan blue exclusion assay. Type of data set: functional, organism-based.
The nature of data set [6]: Cytotoxicity against BALB/c mouse Splenocyte assessed as non-cytotoxic concentration after 24 hrs by [3H]-thymidine incorporation assay relative to control. Type of data set: cell-based. The following applies: splenocytes, read-out: Activity. On the technique in general: Uptake of a labelled nucleoside into DNA is a usual measure of proliferation.
Another data set relates to Mus musculus. The data set is described as follows: Toxicity in Swiss mouse assessed as mortality at 100 mg/kg, ip after 72 hrs. Type of data set: organism-based. Set-up: dose 100 mg/kg, route intraperitoneal. Particulars: in vivo.
The subject of data set [7] is Trypanosoma cruzi. The data set can be described thus: Antitrypanosomal activity against epimastigotes of Trypanosoma cruzi Y assessed as viability at 40 uM after 11 days by trypan blue exclusion assay. Type of data set: functional. The following applies: 264 h.
The next data set concerns the target Cruzipain (Trypanosoma cruzi, UniProt P25779). The data set is described as follows: Inhibition of Trypanosoma cruzi cruzaine pre-incubated for 10 mins.
Data set [8] has as its target Cruzipain (Trypanosoma cruzi) (UniProt P25779). The data set is described as follows: Inhibition of Trypanosoma cruzi cruzaine without pre-incubation. Particulars: TDE = time-dependent effect.
In data set [9] the test system is Trypanosoma cruzi. The data set can be described thus: Antitrypanosomal activity against epimastigotes of Trypanosoma cruzi Y assessed as viability at 40 uM after 7 days by trypan blue exclusion assay. Type of data set: functional. Particulars: 168 h.
Data set [10] concerns Trypanosoma cruzi. The data set can be described thus: Antitrypanosomal activity against epimastigotes of Trypanosoma cruzi Y assessed as viability at 40 uM after 15 hrs by trypan blue exclusion assay. In kind it is functional.

Sequence of Cruzipain (P25779 whole entry): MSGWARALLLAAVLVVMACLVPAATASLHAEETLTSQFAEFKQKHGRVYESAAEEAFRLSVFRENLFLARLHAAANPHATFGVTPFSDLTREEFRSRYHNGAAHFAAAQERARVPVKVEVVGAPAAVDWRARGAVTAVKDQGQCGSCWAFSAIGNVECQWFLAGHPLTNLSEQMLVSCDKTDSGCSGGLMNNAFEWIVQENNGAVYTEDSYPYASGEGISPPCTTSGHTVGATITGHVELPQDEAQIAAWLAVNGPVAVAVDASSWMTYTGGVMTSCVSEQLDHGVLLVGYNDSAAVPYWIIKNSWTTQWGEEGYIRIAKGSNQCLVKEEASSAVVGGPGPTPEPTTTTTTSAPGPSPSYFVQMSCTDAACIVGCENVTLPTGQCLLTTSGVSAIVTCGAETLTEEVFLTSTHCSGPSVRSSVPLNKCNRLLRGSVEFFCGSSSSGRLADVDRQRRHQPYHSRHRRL

As to `Cc1ccc(SC/C=N/N=C2\NC(=S)C(C)S2)cc1` (configuration not stated), the inhibition entry in [1] and in data set [3] was “Active” each time. The compound further yielded an inhibition in [2] of 6%. The IC50 in the data set with Trypanosoma cruzi [4] stood at 6.1 µM; in the data set on Trypanosoma cruzi [5] it was 4.5 µM. In addition, the MNTC at 24 h in data set [6] was below 1 µg/mL. The Activity entry in the data set on Mus musculus is recorded as “Toxic”.

Consider `CCC1S/C(=N/N=C(\C)CSc2ccc(S)cc2)NC1=O` (configuration not stated), for which the inhibition result in [1] and in data set [3] was “Active” each time. In data set [2], the inhibition is 11%. For the same compound, in the data set with Trypanosoma cruzi [7], the inhibition at 40 µM is 41%. Besides, the 50% inhibitory concentration (IC50) with Trypanosoma cruzi [4] came to 40.8 µM; with Trypanosoma cruzi [5], 54.6 µM. Also, the MNTC at 24 h in [6] was above 100 µg/mL.

In the case of `O=C1CS/C(=N/N=C/CSc2ccc(Br)cc2)N1`, the inhibition result in data set [1] and in data set [3] was “Active” throughout. In data set [2], this compound came in with an inhibition of 8%. Moreover, in the data set with Trypanosoma cruzi [7], the inhibition at 40 µM amounted to 31.5%. Besides, in the data set on Trypanosoma cruzi [4], the IC50 came out at 42.9 µM. In addition, in data set [6], the MNTC at 24 h was above 100 µg/mL.

`C/C(=N\N=C(\N)S)c1ccc(Cl)c(Cl)c1`: the figures for the inhibition in data set [2] and in data set [8] were 96% and “tde”, respectively. For the same compound, the IC50 amounted to 0.1 µM at Cruzipain, 8.5 µM with Trypanosoma cruzi [4] and 39.5 µM in the data set on Trypanosoma cruzi [5]. Moreover, the MNTC at 24 h in data set [6] came out at 1 µg/mL.

Take `O=C1CS/C(=N/N=C/CSc2ccc(Cl)cc2)N1`: the inhibition entry in [1] and in data set [3] was “Active” in each case. This compound also had an inhibition in data set [2] of 11%. In addition, the inhibition at 40 µM in the data set on Trypanosoma cruzi [7] turned out to be 8%. For the same compound, the half-maximal inhibitory concentration (IC50) was determined as 43.9 µM in the data set on Trypanosoma cruzi [4] and 82.4 µM with Trypanosoma cruzi [5]. Further, the MNTC at 24 h in data set [6] is above 100 µg/mL.

For the compound `CCC1S/C(=N/N=C(\C)CSc2ccc(Cl)cc2)NC1=O` (configuration not stated), the inhibition entry in data set [1] and in data set [3] was “Active” in each case. The compound further gave an inhibition in data set [2] of 31%. The inhibition at 40 µM with Trypanosoma cruzi [7] worked out at 24%. The IC50 was 62.9 µM in the data set on Trypanosoma cruzi [4] and 148 µM in the data set with Trypanosoma cruzi [5]. Further, the MNTC at 24 h in data set [6] is above 100 µg/mL.

For the compound `CC1S/C(=N/N=C/CCSc2ccccc2)NC1=S` (configuration not stated), the inhibition entry in data set [1] and in data set [3] was “Active” throughout. This compound also returned an inhibition in data set [2] of 92%. The IC50 against Cruzipain stood at 0.06 µM; with Trypanosoma cruzi [4] it was 8.1 µM; in the data set with Trypanosoma cruzi [5], 2.3 µM. For the same compound, the MNTC at 24 h in data set [6] worked out at 1 µg/mL. Further, the inhibition at 40 µM in the data set with Trypanosoma cruzi [9] worked out at 94%. For the same compound, the Activity entry in the data set with Mus musculus is reported as “Toxic”.

`CC1S/C(=N/N=C/CCSc2ccc(Cl)cc2)NC1=O` (configuration not stated): the inhibition result in data set [1] and in [3] was “Active” each time. The inhibition in [2] stood at 98%. The concentration for half-maximal inhibition (IC50) against Cruzipain amounted to 0.2 µM; with Trypanosoma cruzi [4], 32.1 µM. Besides, the inhibition at 40 µM with Trypanosoma cruzi [7] worked out at 10%. Further, the MNTC at 24 h in data set [6] is above 100 µg/mL.

Take `CC/C(=N\N=C(\N)S)c1cccc(Br)c1`: the results for the inhibition in data set [2] and in [8] were 92% and “tde”, respectively. Also, the IC50 in the data set on Trypanosoma cruzi [4] stood at 15.4 µM; in the data set on Trypanosoma cruzi [5], 11.1 µM.

Turning to `NC(=S)N/N=C/C=C/c1ccccc1`, the inhibition entry in [1] and in data set [3] was “Active” throughout. In [2], this compound showed an inhibition of 35%. Moreover, in the data set with Trypanosoma cruzi [7], the inhibition at 40 µM was determined as 99%. Further, the IC50 in the data set with Trypanosoma cruzi [4] was 7.3 µM; in the data set on Trypanosoma cruzi [5] it was 7.4 µM. The MNTC at 24 h in [6] was below 1 µg/mL.

Turning to `CC1S/C(=N/N=C/CSc2ccccc2)NC1=O` (configuration not stated), the inhibition entry in [1] and in [3] was “Active” in each case. Besides, in data set [2], the inhibition was 5%. Also, the inhibition at 40 µM with Trypanosoma cruzi [7] was 4%. Besides, the IC50 turned out to be 167 µM in the data set on Trypanosoma cruzi [4] and 44.2 µM with Trypanosoma cruzi [5]. The MNTC at 24 h in data set [6] is above 100 µg/mL.

For the compound `NC(=S)N/N=C/CCc1ccccc1`, the inhibition entry in data set [1] and in data set [3] was “Active” in each case. Besides, the 50% inhibitory concentration (IC50) in the data set with Trypanosoma cruzi [4] and in the data set with Trypanosoma cruzi [5] was 3.7 µM each time. Further, in [6], the MNTC at 24 h was below 1 µg/mL.

In the case of `O=C(Cn1ccnc1[N+](=O)[O-])NCc1ccccc1` [BENZNIDAZOLE], the inhibition at 40 µM in the data set with Trypanosoma cruzi [7] stood at 97%; with Trypanosoma cruzi [10], 43%; in the data set with Trypanosoma cruzi [9], 85%. The MNTC at 24 h in [6] amounted to 25 µg/mL. Moreover, the Activity entry with Mus musculus is “Non-toxic”.

For `NC(=S)N/N=C/CSc1ccccc1`, the inhibition entry in data set [1] and in [3] was “Active” throughout. The compound further returned an inhibition in data set [2] of 28%. The inhibition at 40 µM with Trypanosoma cruzi [7] was determined as 100%. Further, the IC50 in the data set with Trypanosoma cruzi [4] was 13.4 µM; with Trypanosoma cruzi [5], 158 µM. Further, the MNTC at 24 h in data set [6] came to 5 µg/mL. Moreover, the Activity result with Mus musculus is listed as “Non-toxic”.

In the case of `O=C1CS/C(=N/N=C/C=C/c2ccccc2)N1`, the inhibition entry in [1] and in data set [3] was “Active” throughout. Moreover, the inhibition in data set [2] is 8%. Besides, the IC50 is 2.3 µM with Trypanosoma cruzi [4] and 10.1 µM in the data set on Trypanosoma cruzi [5]. In data set [6], the MNTC at 24 h was below 1 µg/mL.

`CC/C(=N\NC(N)=S)c1cccc(Br)c1`: the MNTC at 24 h in [6] turned out to be 1 µg/mL.

`CC1S/C(=N/N=C/CCSc2ccccc2)NC1=O` (configuration not stated): the inhibition entry in data set [1] and in data set [3] was “Active” in each case. This compound had an inhibition in data set [2] of 93%. The IC50 came to 0.4 µM at Cruzipain, 2.9 µM in the data set on Trypanosoma cruzi [4] and 10 µM with Trypanosoma cruzi [5]. Further, the inhibition at 40 µM in the data set on Trypanosoma cruzi [7] was 100%; in the data set on Trypanosoma cruzi [10], 75%; with Trypanosoma cruzi [9], 100%. The MNTC at 24 h in data set [6] is above 100 µg/mL. In addition, the Activity entry in the data set with Mus musculus is listed as “Non-toxic”.

As for `Cc1ccc(SC/C=N/N=C2\NC(=O)C(C)S2)cc1` (configuration not stated), the inhibition entry in data set [1] and in [3] was “Active” each time. Moreover, the inhibition in data set [2] was found to be 80%. Further, the figures for the IC50 against Cruzipain, with Trypanosoma cruzi [4] and in the data set with Trypanosoma cruzi [5] were 20.4 µM, 6.7 µM and 84.8 µM, respectively. The figures for the inhibition at 40 µM in the data set with Trypanosoma cruzi [7], in the data set with Trypanosoma cruzi [10] and in the data set with Trypanosoma cruzi [9] were 97%, 85% and 97%, respectively. Also, the MNTC at 24 h in [6] is above 100 µg/mL. Further, the Activity result in the data set with Mus musculus is “Non-toxic”.

For the compound `CCC1S/C(=N/N=C/CSc2ccc(Br)cc2)NC1=O` (configuration not stated), the inhibition entry in data set [1] and in [3] was “Active” throughout. The compound further yielded an inhibition in [2] of 38%. Further, the inhibition at 40 µM was found to be 77% in the data set on Trypanosoma cruzi [7], 0% with Trypanosoma cruzi [10] and 61% with Trypanosoma cruzi [9]. Further, in the data set on Trypanosoma cruzi [4], the IC50 was 26.9 µM. Moreover, in data set [6], the MNTC at 24 h is above 100 µg/mL. The Activity result with Mus musculus was “Non-toxic”.

For `CCC1S/C(=N/N=C(\C)CSc2ccc(C)cc2)NC1=O` (configuration not stated), the inhibition entry in [1] and in [3] was “Active” in each case. This compound registered an inhibition in data set [2] of 22%. For the same compound, in the data set on Trypanosoma cruzi [7], the inhibition at 40 µM was 40%. For the same compound, the IC50 in the data set on Trypanosoma cruzi [4] is 45.1 µM; in the data set on Trypanosoma cruzi [5], 76.9 µM. In addition, in [6], the MNTC at 24 h is above 100 µg/mL.
